{
  "source": "patent US20140080794A1",
  "about": "“Methods and Compositions for the Treatment of Estrogen-Dependent Hyperproliferative Uterine Disorders” (Vivus, Inc., priority 2008, published 2014)",
  "origin": "cited, not measured here",
  "test_system": "endometriosis patients",
  "data": [
    {"smiles": "CC(C)(C#N)c1cc(Cn2cncn2)cc(C(C)(C)C#N)c1", "note": "[anastrozole, α, α, α′, α′-tetramethyl-5-(1H-1,2,4-triazol-1-ylmethyl)-1,3-benzene-diacetonitrile]", "values": [
      {"measurement": "symptoms of endometriosis", "setting": "1 mg anastrozole and an oral contraceptive (20 μg ethinyl estradiol/1 mg levonorgestrel) per day for six months", "value": "symptom improvement"},
      {"measurement": "systemic estradiol levels", "setting": "1 mg anastrozole and an oral contraceptive (20 μg ethinyl estradiol/1 mg levonorgestrel) per day, all patients, by the end of the treatment period", "value": "significantly suppressed"}
    ]}
  ]
}
